Assay results published in EP2558096B1, “COMBINATION OF HYPOXIA-INDUCIBLE FACTOR-1 INHIBITORS AND TOLL-LIKE RECEPTOR-3 AGONISTS FOR TREATING SOLID TUMORS” (Università degli Studi di Roma "La Sapienza", priority 2010, dated 2011).
Like-named read-outs stand apart in the source and are kept apart here. *1 amine or outer side, *2 acyl side, *3 side chain or, on linkers, in order; H or OH if unused. Where a SMILES comes first, the peptide text is derived from it. Bridges are numbered along the chain shown (N, C = ends). Roman numbers before positions name the chains, in order. [ ]: non-standard residue; d: D form. The star is where a group is joined. Actinocin(9to1) = Cc1c2oc3c(C)ccc(C(=O)[*:1])c3nc-2c(C(=O)[*:2])c(N)c1=O; NMeV = CN[C@H](C(=O)O)C(C)C; Cbz = O=C(OCc1ccccc1)*; Sar = CNCC(=O)O

System: HIF-1α
Assay: Western blot of HIF-1α protein in PC3 cells (whole cell and nuclear extracts)
Type: cell-based, human
Method: LNCaP and PC3 prostate cancer cells were purchased from ATCC and were grown in DME medium supplemented with 2 mM L-glutamine, 100 IU/ml penicillin-streptomycin and 10% FCS (Sigma-Aldrich, St Louis, MO). For all the experiments, prostate cancer cell lines were serum starved for 18 h and then stimulated with poly(I:C) (InvivoGen, San Diego) in FCS-free medium. Human Umbilical Vein Endothelial Cells (HUVEC) were maintained in EGM®-2 complete medium (Lonza, Basel, Switzerland). Actinomycin D, cycloheximide and CoCl2 were from Sigma. MG-132 was from Calbiochem-Merk (Damstadt, Germany).
Cell lysates were prepared in cell lysis buffer (Cell Signaling, Danvers, MA). Equal amounts of proteins (40 µg) were subjected to SDS-polyacrylamide gel electrophoresis and transferred onto a nitrocellulose membrane saturated with 5% non-fat dry milk in Tris-buffered saline with 0.1% Tween-20 (T-TBS). Membranes were incubated with primary antibody and subsequently with horseradish peroxidase-conjugated (HRP) secondary antibody for 1 h at room temperature. Membranes were washed with T-TBS and developed using the chemiluminescence system (ECL; Amersham Bioscience, Piscataway, NJ). Antibody anti-HIF-1α was from BD biosciences (San Diego, CA), cleaved caspase-3 (Asp175) from Cell Signalling (Danvers, MA) and anti-β actin from Sigma. Secondary antibodies were HRP-conjugated goat anti-mouse or anti-rabbit (Bio-Rad, Hercules, CA). To perform Western blot of nuclear extracts, cells were washed in ice-cold PBS, scraped and collected in buffer A (10 mM Tris, pH 7.8, 1.5 Mm MgC12, and 10 mM KCl), and kept on ice for 10 min. before Dounce homogenization. Nuclei were then pelleted at 1000 g for 7 min. at 4°C, re-suspended in 150 µl ice-cold lysis buffer and incubated for 30 min. on ice in the presence of proteases inhibitor cocktail (Sigma) then stored at -80°C. Protein concentration was determined by the micro bicinchoninic acid (BCA) method (Pierce, Rockford, IL).
One day after plating (1 x 10^5 cells/ml), cells were transiently transfected with 1 µg of a plasmid encoding 1.3 isoform of hif-1α [6] or relative control plasmid (pcDNA3) or with 1 µg of a plasmid containing an interfering sequence targeting hif-1α (int.HIF-1α) or the relative control (int. scramble) previously described. Cells were transfected for 5 h with lipofectamine LTX/plus (Invitrogen, Carlsbad, CA) according to the manufacturer's protocol. Challenge with poly(I:C) was performed 18 h later.
To obtain stably transfected PC3 cells with non-functional TLR3, cells were transfected with 1 µg TLR3-dominant negative plasmid (TLR3-DN) (pZERO-hTLR3, Invivogen) or with 1 µg plasmid containing only the resistance to puromycin (pPURO), using lipofectamine LTX/plus as described above. 48 h later, the cells were trypsinized, and seeded at different dilutions onto 100-mm plates in complete DMEM supplemented with 2 µg/ml puromycin (Invivogen). After incubation at 37°C for 2 to 3 weeks, individual colonies were isolated using sterile cloning rings, trypsinized and plated onto 12-well plates. The clones obtained were expanded and maintained in DMEM supplemented with 2 µg/ml puromycin.

C[C@@H]1C[C@@H]([C@H](O)CC2CC(=O)NC(=O)C2)C(=O)[C@@H](C)C1 [CHX, cycloheximide]
effect on HIF-1α increase by CoCl2 combined with MG-132: not significantly inhibited
effect on HIF-1α increase by poly(I:C) in MG-132-treated cells: reverted the increase to the level of MG-132 alone
effect on HIF-1α protein accumulation in cells treated with CoCl2: did not inhibit
effect on poly(I:C)-dependent HIF-1α protein induction: completely abolished

Cc1c2oc3c(C)ccc(C(=O)N[C@@H]4C(=O)N[C@H](C(C)C)C(=O)N5CCC[C@H]5C(=O)N(C)CC(=O)N(C)[C@@H](C(C)C)C(=O)O[C@@H]4C)c3nc-2c(C(=O)N[C@@H]2C(=O)N[C@H](C(C)C)C(=O)N3CCC[C@H]3C(=O)N(C)CC(=O)N(C)[C@@H](C(C)C)C(=O)O[C@@H]2C)c(N)c1=O [Act D, actinomycin D] (I: T[dV]P[Sar][NMeV] / II: T[dV]P[Sar][NMeV]; ester I:1-I:C, II:1-II:C; linker I:N-II:N via Actinocin(9to1))
effect on HIF-1α protein accumulation in cells treated with CoCl2 (PC3 cells, 100 µM CoCl2 3 h, Fig. 2B upper): did not inhibit
effect on poly(I:C)-dependent HIF-1α protein induction (PC3 cells, poly(I:C) 5 µg/ml about 6 h, inhibitor for 15 min (CHX 100 µg/ml, Act D 2 µg/ml), Fig. 2B upper): completely abolished

CC(C)C[C@@H](C=O)NC(=O)[C@H](CC(C)C)NC(=O)[C@H](CC(C)C)NC(=O)OCc1ccccc1 [MG-132] (Cbz-Leu-Leu-Leu-aldehyde)
level of HIF-1α in the absence of poly(I:C) (PC3 cells, 5 µg/ml MG-132, 3 h, Fig. 2B lower): induced an increase
HIF-1α compared to CoCl2 alone (PC3 cells, CoCl2 combined with MG-132, Fig. 2B lower): greater increment
